Measured values published in patent publication US20240374734A1, “Immunomodulatory Combinations of Antigen and Drug-Lipid Conjugate” (Integrated Nanotherapeutics Inc., priority 2021, published 2024).
Where two headings read alike, the source gives them in different places.

Legend:
[1] = human, plasma, 2 h
[2] = Characterisation of prodrug LNP: particle size, PdI, prodrug entrapment; format: physicochemical; details: for % Entrap (Dex/Calcitriol): Calcitriol: Table 2, calcitriol prodrug; for PdI / Size: Table 2, prodrug LNP
Procedure: Lipid conjugates (prodrugs) were dissolved in ethanol, isopropanol, DMSO or THF. LNP were prepared by rapidly mixing DSPC or DMPC, cholesterol, prodrugs, and PEG-DSPE (in a molar ratio of 49/40/10/1) with phosphate-buffered saline (PBS) using a cross-junction mixer. Formulations were dialyzed against PBS to remove residual ethanol. In cases where a peptide antigen, such as ovalbumin peptide […] (OVA), was co-formulated within the LNP, the peptide is dissolved in PBS and rapidly mixed with the lipid phase. Dialysis or tangential flow filtration was used to remove all unentrapped peptide.
(§1) The physiochemical properties of the LNPs prepared as described above were subsequently characterized. Particle size was determined by dynamic light scattering using a Malvern Zetasizer Nano ZS (Malvern, UK) following buffer exchange into phosphate-buffered saline. Number-weighted size and distribution data was used. Lipid concentrations were determined by measuring total cholesterol using the Cholesterol E enzymatic assay kit from Wako Chemicals USA (Richmond, VA). mRNA entrapment was determined using a modified Quanti-iT Ribogreen assay (ThermoFisher, Waltham, MA). LNP-mRNA systems were incubated in the presence or absence of 1% Triton X-100 (Sigma-Aldrich, St. Louis, MO). Fluorescence intensities (Ex/Em: 480/520 nm) were compare to determine % mRNA entrapment.

[3] = Characterisation of LNP co-loaded with mRNA and prodrugs: Z-Ave, PDI, mRNA and prodrug entrapment; format: physicochemical
Procedure: To prepare LNPs that contain mRNA that codes for the antigen, ionizable lipid such as INT-A002 (see page 32 of co-owned WO 2021/026647; Application No. PCT/CA2020/051098, which is incorporated herein by reference), DSPC, cholesterol and PEG-DMG were dissolved in ethanol. Prodrugs were dissolved in ethanol, isopropanol, DMSO or THF. The mRNA was dissolved in 10 mM citrate or 25 mM acetate buffer at pH 4.0. LNP were prepared by rapidly mixing the lipid components in ethanol (in molar ratio of 45/8.5/35/1.5/10 of INT-A002/DSPC/chol/PEG-DMG/prodrugs) with nucleic acids in aqueous buffer at a volumetric flow rate ratio of 1:3 (ethanol to aqueous, combined flow rate 28 ml/min) at room temperature. The product was then dialyzed against 1× phosphate-buffered saline (PBS) at pH 7.4 for 24 hours to remove residual ethanol and to raise the pH.
as §1

[4] = test system: CD4+ T cells from OT-II mice; assay: Antigen-specific OT-II CD4+ T cell proliferation with OVA peptide and prodrug-treated BMDCs; format: cell-based; details: BMDCs pre-treated with prodrug LNP, pulsed with free OVA peptide
Description: CD4 T cells were collected from OT-II mice. These mice have T cell receptors on CD4+ T cells engineered to bind and react to Ovalbumin 323-339 peptide fragment (OVA) when presented on I-Ab MHC Class II. When APCs are loaded with OVA and mixed with these T cells, a robust proliferation of T cells is observed (akin to having an antigen-specific immune disorder).
For the antigen specific model, splenocytes were isolated from OT-II mice (B6.Cg-Tg (TcraTcrb) 425Cbn/J; Jackson Laboratories). CD4+ T cells were purified by CD4 positive selection (EasySep™ Mouse CD4+ T Cell Isolation Kit, Catalog #19852, Stem Cell Technologies) and labelled with 10 μM CFSE and plated in 96-well U bottom plates at a density of 100,000 cells/well. On the same day, prodrug treated C57BL/6 BMDCs (described above) were harvested, pulsed with/without OVA peptide, irradiated at 30 Gy, and co-cultured with the CD4+ cells for 3 days at T:DC ratios of 50:1, 10:1 and 5:1, in RPMI 1640 media (supplemented with 10% FBS, 10 mM HEPES, 50 μM β-mercaptoethanol, 10 mM sodium pyruvate, 1× GlutaMAX, and 1% Pen/Strep). Subsequently, cells were stained for viability (eBioscience Fixable Viability Dye eFlour780, cat #65-0865) and CD4 (eBioscience CD4 Monoclonal Antibody (RM4-5), cat #48-0042-82), and T cell proliferation was quantified via CFSE dilution by flow cytometry.

[5] = test system: Ova specific CD4+ T cells (OT-II T cells); assay: OT-II CD4+ T cell proliferation after BMDC co-treatment with LNP-mRNA and prodrug-LNP; format: cell-based, mice; details: BMDCs treated 48 hours with LNP-mRNA only or LNP-mRNA and separate prodrug LNP
Procedure: The mRNA used in this example is modified to minimize immune stimulation and encodes for full length Ovalbumin (Ova) protein (Trilink, L-7210). Bone marrow-derived dendritic cells (BMDCs) were prepared as previously described and co-cultured with isolated CD4+ T cells (OT-II T cells) that specifically recognize the Ova323-339 epitope loaded in H-2b MHC Class II (C57BL/6 haplotype). Proliferation was assessed based on CFSE dilution by flow cytometry. BMDCs pulsed for 4 hours with free Ova323-339 peptide (0.1 μg/mL) served as an antigen-loaded control (Free Ova Peptide), and untreated BMDCs served as the No Antigen control. 48 hours prior to co-culturing, BMDCs were treated with LNP-mRNA only or LNP-mRNA and LNP containing dexamethasone (D034) or calcitriol (D053) prodrugs.

[6] = Retention of lipid conjugate (prodrug) in LNP after incubation in human plasma; details: 2 hours incubation in human plasma; DSPC/Chol/Prodrug/DSPE-PEG LNP
[7] = Table 6, LNP-mRNA with lipid conjugate

| Compound | lipid conjugate (prodrug) remaining in LNPs [1] | % Entrap (Dex/Calcitriol): Calcitriol [2] | PdI [2] | Size [2] [nm] | % mRNA Entrap. [3, 7] [%] | PDI [3, 7] | Z-Ave (nm) ([3]; Table 6, LNP-mRNA with lipid conjugate (mol %)) | T cell proliferation induced by OVA loaded BMDCs [4] | T-cell proliferation (CFSE dilution) [5] | lipid conjugate (prodrug) remaining in LNPs [6] |
| --- | --- | --- | --- | --- | --- | --- | --- | --- | --- | --- |
| CCCCC/C=C\C/C=C\CCCCCCCC(=O)O[C@@H](C/C=C\CCCCCCCCOC(=O)CCC(=O)OCC(=O)[C@@]1(O)[C@H](C)C[C@H]2[C@@H]3CCC4=CC(=O)C=C[C@]4(C)[C@@]3(F)[C@@H](O)C[C@@]21C)CCCCCC [Prodrug D045, 2-((8S,9R,10S,11S,13S,14S,16R,17R)-9-fluoro-11,17-dihydroxy-10,13,16-trimethyl-3-oxo-6,7,8,9,10,11,12,13,14,15,16,17-dodecahydro-3H-cyclopenta[a]phenanthren-17-yl)-2-oxoethyl ((R,Z)-12-(linoleoyloxy)octadec-9-en-1-yl) succinate] | stably retained |  |  |  |  |  |  |  |  |  |
| C=C1/C(=C\C=C2/CCC[C@]3(C)[C@@H]([C@H](C)CCCC(C)(C)O)CC[C@@H]23)C[C@@H](OC(=O)CCCCCCC/C=C\C[C@@H](CCCCCC)OC(=O)CCCCCCC/C=C\C/C=C\CCCCC)C[C@@H]1OC(=O)CCCCCCC/C=C\C[C@@H](CCCCCC)OC(=O)CCCCCCC/C=C\C/C=C\CCCCC [Prodrug D087] |  | —/99% | 0.055 | 40 |  |  |  |  |  |  |
| (1R,3S,Z)-3-hydroxy-5-(2-((1R,3aS,7aR,E)-1-((R)-6-hydroxy-6-methylheptan-2-yl)-7a-methyloctahydro-4H-inden-4-ylidene)ethylidene)-4-methylenecyclohexyl (R,Z)-12-acetoxyoctadec-9-enoate and (1S,5R,Z)-5-hydroxy-3-(2-((1R,3aS,7aR,E)-1-((R)-6-hydroxy-6-methylheptan-2-yl)-7a-methyloctahydro-4H-inden-4-ylidene)ethylidene)-2-methylenecyclohexyl (R,Z)-12-acetoxyoctadec-9-enoate [Prodrug D053] |  | —/98% | 0.070 | 55 | 97 | 0.034 | 69 | significantly reduces | suppressed | stably retained |
